Tests used:
Assay type in all cases: biochemical
PIM-3 = PIM-3 (Homo sapiens (Human), UniProt Q86V86); test: inhibition test on kinase PIM-3 (residual activity, IC50); details: for remaining activity at 10 µM: product at 10 μmol/L, Table 2, N.I. = not inhibitory, read-out: Percentage of residual activity PIM-3; for IC50: ten concentrations, dose-inhibition curve
Text: (§1) MKK1, ERK 1, ERK 2, JNK1, JNK2, JNK3, p38a MAPK, p38b MAPK, p38g MAPK, p38s MAPK, ERK8, RSK1, RSK2, PDK1, PKBa, PKBb, SGK1, S6K1, PKA, ROCK2, PRK2, PKCa, PKC zeta, PKD1, MSK1, MNK1, MNK2, MAPKAP-K2, MAPKAP-K3, PRAK, CAMKKa, CAMKKb, CAMK1, SmMLCK, PHK, CHK1, CHK2, GSK3b, CDK2/cyclin A, PLK1, PLK1 (Okadaic acid), Aurora B, Aurora C, AMPK, MARK3, BRSK2, MELK, CK1, CK2, NEK2a, NEK6, NEK7, IKKb, PIM-1, PIM-2, PIM-3, SRPK1, MST2, EF2K, HIPK2, HIPK3, PAK-4, PAK5, PAK6, Src, Lck, CSK.
(§2) The results in terms of residual activity of the kinases after being placed in contact with the compounds of Examples 2, 3 and 5, at a concentration of 10 μM (10 μmol/L), are shown in Table 1 below.
(§3) The higher the residual activity of the kinase tested, the lower the inhibitory activity of the test compounds on the tested kinase.
(§4) The compounds according to the invention were then tested on the kinases PIM-1, PIM-2 and PIM-3.
(§5) The results in terms of percentage of residual activity after placing the compounds according to the invention in contact with each of the kinases PIM-1, PIM-2 and PIM-3 are given in Table 2 below.
(§6) The higher the residual activity, the lower the inhibitory activity of the test compounds.
(§7) The mean inhibitory concentrations (IC50) of certain preferred compounds of the invention were determined in the following manner: the IC50 values were measured after performing the inhibition tests on the kinases PIM-1, PIM-2 and PIM-3 at ten different concentrations for each test compound, and the IC50 value was determined from the dose-inhibition curves obtained.

PIM-1 = PIM-1 (Homo sapiens (Human), UniProt P11309); test: inhibition test on kinase PIM-1 (residual activity, IC50); details: for remaining activity at 10 µM / Percentage of residual activity PIM-1: product at 10 μmol/L, Table 2, N.I. = not inhibitory; for remaining activity at 10 µM: read-out: Percentage of residual activity PIM-1
Sequence of PIM-1 (P11309 whole entry, species assumed): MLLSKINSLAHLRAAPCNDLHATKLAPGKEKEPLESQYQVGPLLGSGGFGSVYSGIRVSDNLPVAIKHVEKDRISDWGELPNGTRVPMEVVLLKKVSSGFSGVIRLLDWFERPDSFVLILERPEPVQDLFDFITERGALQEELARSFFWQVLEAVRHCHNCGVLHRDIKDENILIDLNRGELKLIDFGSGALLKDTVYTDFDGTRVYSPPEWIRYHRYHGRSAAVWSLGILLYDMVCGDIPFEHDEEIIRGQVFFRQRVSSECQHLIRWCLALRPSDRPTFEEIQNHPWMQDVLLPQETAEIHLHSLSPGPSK
Text: as §1, §2, §3, §4, §5, §6, §7

PIM-2 = PIM-2 (Homo sapiens (Human), UniProt Q9P1W9); test: inhibition test on kinase PIM-2 (residual activity, IC50); details: product at 10 μmol/L, Table 2, N.I. = not inhibitory; for remaining activity at 10 µM: read-out: Percentage of residual activity PIM-2
Sequence of PIM-2 (Q9P1W9 whole entry, species assumed): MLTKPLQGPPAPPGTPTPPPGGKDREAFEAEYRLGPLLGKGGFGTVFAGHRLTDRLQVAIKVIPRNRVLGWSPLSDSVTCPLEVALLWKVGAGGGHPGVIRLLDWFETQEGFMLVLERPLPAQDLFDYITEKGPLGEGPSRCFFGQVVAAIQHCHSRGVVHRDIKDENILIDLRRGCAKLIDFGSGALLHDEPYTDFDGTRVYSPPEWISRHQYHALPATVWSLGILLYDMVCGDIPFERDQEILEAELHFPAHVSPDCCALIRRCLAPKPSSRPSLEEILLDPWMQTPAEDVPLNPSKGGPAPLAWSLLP
Text: as §1, §2, §3, §4, §5, §6, §7

Structure (SMILES)	remaining activity at 10 µM (PIM-3) [%]	remaining activity at 10 µM (PIM-1) [%]	remaining activity at 10 µM (PIM-2) [%]	Percentage of residual activity PIM-2 (PIM-2)	Percentage of residual activity PIM-1 (PIM-1)	IC50 (PIM-3) [nM]	IC50 (PIM-1; ten concentrations, dose-inhibition curve) [nM]
Clc1cc(Cl)c2c(c1)[nH]c1c2ccc2cc[nH]c21 [Example 30, 6,8-dichloro-1,10-dihydropyrrolo[2,3-a]carbazole]	14	10	36	–	–	–	–
FC(F)(F)c1cccc2c1[nH]c1c2ccc2cc[nH]c21 [Example 34, 9-(trifluoromethyl)-1,10-dihydropyrrolo[2,3-a]carbazole]	45	85	–	N.I.	–	–	–
CCc1cccc2c1[nH]c1c2ccc2cc[nH]c21 [Example 33, 9-ethyl-1,10-dihydropyrrolo[2,3-a]carbazole]	23	28	96	–	–	–	–
COc1cccc(-c2ccc3[nH]c4c(ccc5cc[nH]c54)c3c2)c1 [Example 18, 7-(3-methoxyphenyl)-1,10-dihydropyrrolo[2,3-a]-carbazole]	39	46	51	–	–	–	–
O=[N+]([O-])c1ccc2[nH]c3c(ccc4cc[nH]c43)c2c1 [Example 32, 7-nitro-1,10-dihydropyrrolo[2,3-a]carbazole]	11	9	23	–	–	–	–
Fc1cccc2c1[nH]c1c2ccc2cc[nH]c21 [Example 29, 9-fluoro-1,10-dihydropyrrolo[2,3-a]carbazole]	43	–	–	N.I.	N.I.	–	–
Cc1ccc2c(c1)[nH]c1c2ccc2cc[nH]c21 [Example 35, 8-methyl-1:10-dihydropyrrolo[2,3-a]carbazole]	13	81	–	N.I.	–	–	–
OCCc1c[nH]c2c1ccc1c3ccccc3[nH]c12 [Example 9, 2-(1,10-dihydropyrrolo[2,3-a]carbazol-3-yl)ethanol]	21	35	50	–	–	–	–
N#Cc1ccc2[nH]c3c(ccc4cc[nH]c43)c2c1 [Example 31, 1,10-dihydropyrrolo[2,3-a]carbazole-7-carbonitrile]	4	9	26	–	–	–	–
CCOC(=O)C(=O)c1c[nH]c2c1ccc1c3ccccc3[nH]c12 [Example 8, ethyl 2-(1,10-dihydropyrrolo[2,3-a]carbazol-3-yl)-2-oxoacetate]	33	44	47	–	–	–	–
Fc1ccc2[nH]c3c(ccc4cc[nH]c43)c2c1 [Example 28, 7-fluoro-1,10-dihydropyrrolo[2,3-a]carbazole]	20	35	84	–	–	–	–
Brc1cccc2[nH]c3c(ccc4cc[nH]c43)c12 [Example 26, 6-bromo-1,10-dihydropyrrolo[2,3-a]carbazole]	11	8	37	–	–	–	–
O=S(=O)(c1ccccc1)n1ccc2ccc3c4cc(Br)ccc4[nH]c3c21 [Example 14, 1-benzenesulfonyl-7-bromo-1,10-dihydropyrrolo-[2,3-a]carbazole]	61	51	52	–	–	–	–
CCN(CC)C(=O)C(=O)c1c[nH]c2c1ccc1c3ccccc3[nH]c12 [Example 10, 2-(1,10-dihydropyrrolo[2,3-a]carbazol-3-yl)-N,N-diethyl-2-oxoacetamide]	39	54	51	–	–	–	–
Brc1ccc2[nH]c3c(ccc4cc[nH]c43)c2c1 [Example 15, 7-bromo-1,10-dihydropyrrolo[2,3-a]carbazole]	8	12	46	–	–	440	–
CCN(CC)CCc1c[nH]c2c1ccc1c3ccccc3[nH]c12 [Example 11, 2-(1,10-dihydropyrrolo[2,3-a]carbazol-3-yl)-N,N-diethylethanamine]	25	39	78	–	–	–	–
OCc1c[nH]c2c1ccc1c3ccccc3[nH]c12 [Example 4, (1,10-dihydropyrrolo[2,3-a]carbazol-3-yl)methanol]	18	28	47	–	–	–	–

Results, then the compound that gave them:

remaining activity at 10 µM (PIM-3) [%]	remaining activity at 10 µM (PIM-1) [%]	remaining activity at 10 µM (PIM-2) [%]	Percentage of residual activity PIM-2 (PIM-2)	Percentage of residual activity PIM-1 (PIM-1)	IC50 (PIM-3) [nM]	IC50 (PIM-1; ten concentrations, dose-inhibition curve) [nM]	Structure (SMILES)
3	5	11	–	–	–	–	O=Cc1c[nH]c2c1ccc1c3cccc(F)c3[nH]c12 [Example 47, 9-Fluoro-1,10-dihydropyrrolo[2,3-a]carbazole-3-carbaldehyde]
23	28	52	–	–	–	–	O=Cc1c[nH]c2c1ccc1c3cc(-c4ccc(C(F)(F)F)cc4)ccc3[nH]c12 [Example 41, 7-(4-trifluoromethylphenyl)-1,10-dihydropyrrolo-[2,3-a]carbazole-3-carbaldehyde]
5	2	6	–	–	–	–	O=Cc1c[nH]c2c1ccc1c2[nH]c2cccc(Br)c21 [Example 44, 6-bromo-1,10-dihydropyrrolo[2,3-a]carbazole-3-carbaldehyde]
35	–	–	N.I.	N.I.	–	–	O=Cc1c[nH]c2c1ccc1c3cc([N+](=O)[O-])ccc3[nH]c12 [Example 50, 7-nitro-1,10-dihydropyrrolo[2,3-a]carbazole-3-carbaldehyde]
6	6	32	–	–	200	660	O=Cc1c[nH]c2c1ccc1c3cc(-c4ccc(F)cc4F)ccc3[nH]c12 [Example 40, 7-(2,4-difluorophenyl)-1,10-dihydropyrrolo[2,3-a]-carbazole-3-carbaldehyde]
9	3	28	–	–	–	–	O=Cc1c[nH]c2c1ccc1c3cccc(Br)c3[nH]c12 [Example 45, 9-bromo-1,10-dihydropyrrolo[2,3-a]carbazole-3-carbaldehyde]
15	15	55	–	–	–	–	O=Cc1c[nH]c2c1ccc1c3cc(-c4ccc(F)cc4)ccc3[nH]c12 [Example 39, 7-(4-fluorophenyl)-1,10-dihydropyrrolo[2,3-a]carbazole-3-carbaldehyde]
31	29	70	–	–	–	–	O=Cc1c[nH]c2c1ccc1c3cc(-c4ccc(OC(F)(F)F)cc4)ccc3[nH]c12 [Example 42, 7-(4-trifluoromethoxyphenyl)-1,10-dihydropyrrolo[2,3-a]carbazole-3-carbaldehyde]
14	92	–	N.I.	–	–	–	N#Cc1ccc2[nH]c3c(ccc4c(C=O)c[nH]c43)c2c1 [Example 49, 3-formyl-1,10-dihydropyrrolo[2,3-a]carbazole-7-carbonitrile]
15	16	53	–	–	–	–	O=Cc1c[nH]c2c1ccc1c3cc(-c4ccccc4)ccc3[nH]c12 [Example 38, 7-phenyl-1,10-dihydropyrrolo[2,3-a]carbazole-3-carbaldehyde]
12	17	31	–	–	–	–	COc1cccc(-c2ccc3[nH]c4c(ccc5c(C=O)c[nH]c54)c3c2)c1 [Example 36, 7-(3-methoxyphenyl)-1,10-dihydropyrrolo[2,3-a]-carbazole-3-carbaldehyde]
6	8	34	–	–	–	–	O=Cc1c[nH]c2c1ccc1c2[nH]c2cc(Cl)cc(Cl)c21 [Example 48, 6,8-dichloro-1,10-dihydropyrrolo[2,3-a]carbazole-3-carbaldehyde]
48	39	70	–	–	–	–	O=Cc1c[nH]c2c1ccc1c3cc(-c4ccc(-c5ccccc5)cc4)ccc3[nH]c12 [Example 37, 7-(4-biphenyl)-1,10-dihydropyrrolo[2,3-a]carbazole-3-carbaldehyde]

Source: US8481586B2, “Pyrrolo[2,3-a] carbazoles and use thereof as PIM kinase inhibitors” (Centre National de la Recherche Scientifique, priority 2008, dated 2013)
